Results published in patent publication US20260166021A1, “POLYMORPHIC FORMS OF A SOLUBLE EPOXIDE HYDROLASE INHIBITOR AND FORMULATIONS THEREOF” (EicOsis, LLC, priority 2022, published 2026).
In brackets after ≈: the same amount, converted by molar mass. Several values for one entry are separate records, joined by “and”; a condition that tells them apart may be missing. Identical values can stand only once. Marks after values point to notes of the source that are not given here.

What was measured:
Format in all cases: physicochemical
[1] = Competitive slurry experiments (solvent-mediated polymorph transformation, XRD); settings: 1 and 7 days
Experimental: Polymorph stability and interconversions were analyzed with competitive slurry experiments. The competitive slurry (solvent-mediated transformation) experiments were performed on Forms A, B, D, E, F, G, and I generated through scaled-up crystallization (summarized in TABLE 11). […] The suspensions were aliquoted at one day and seven days and filtered to isolate the solids. Remaining solid was analyzed by XRD without drying.
In FIG. 66, the second spectrum from the top corresponds to Form E. These XRD data confirmed that Patterns C, K, and D were afforded in these solvents.
In order to further confirm the rank of stability order of the selected forms and extend the temperature range of stability relationship up to 70° C. covering potential API process conditions, binary form slurries were conducted with starting mixtures of (1) Forms A and D, and (2) Forms D and E. The resultant polymorphs were characterized with XRD after 1 and 7 days, the results of which analyses are shown in FIGURE S 67-68 and summarized in TABLE 13. Pattern D stood out from both binary mixture slurries of A & D and of D & E after seven-day stirring at the elevated temperature.
Additional single form slurry experiments were conducted on Forms A, D, and E in either water or heptane at room temperature. […] In agreement with prior competitive slurry experiments, Form D was stable at room temperature in n-heptane. Pattern E was obtained from slurries starting with Forms A and E in n-heptane. As expected, Form C was formed from the Pattern E slurry in water.

[2] = Thermal stress studies at 60° C. (XRD, HPLC); settings: HPLC
Experimental: Briefly, 20 mg of solid Form A, B, C, D, E, F, G, and I were weighed into 7 mL glass vials. The vials were covered with tissue and stored in ovens set to 60° C. and ambient pressure. Following 1 and 7 days incubation, solid was collected for XRD analysis.
As shown in these figures, Forms B and C converted to Forms D and A, respectively, while the other forms remained unchanged.
The starting materials, intermediates (1 day of thermal stress), and products (7 days of thermal stress) were analyzed by H PLC. Representative chromatograms from the Form D thermal stress analyses are shown in FIGS. 81-83 (starting material, 1 day, and 7 day samples, respectively).

[3] = Hygroscopic analyses: stability at 75% relative humidity and 40° C. (XRD); settings: open vial, after 4 and 14 days
Experimental: To further evaluate physical stability, Form D was tested for stability in humid conditions. […] FIG. 84 summarizes XRD analyses used to monitor the polymorph over the 14-day experiment. In this figure, the top panel provides a representative XRD spectrum of Form D, the second from the top panel is an XRD spectrum of the starting material, the third from the top panel is an XRD spectrum of the starting material after 4 days of humidity exposure, and the bottom panel is an XRD spectrum of the starting material after 14 days of humidity exposure.

[4] = Equilibrium-solubility screening in solvents and excipients
Experimental: For these analyses, Form D or Form C was mixed with 0.5 or 1.0 mL of solvents and equilibrated for approximately 24 hours. The mixture was filtered through 0.45 μm centrifuge filters.
As expected, the compound was not easily ionized at physiologically relevant pH. […] In addition, these excipients included surfactants, co-solvents, and lipids which are amenable for use in self-emulsifying drug delivery systems (SEDDS). The XRD pattern of the starting material was maintained for each sample after equilibrium.

[5] = Supersaturation monitoring in PEG 300; settings: for Step → Observation: PEG 300 (0.5 mL)
[6] = Differential scanning calorimetry (DSC): heat of fusion, thermal events
Experimental: Differential scanning calorimetry analyses were performed on each sample “as is.” Unless otherwise specified, samples were weighed in an aluminum pan, covered with a pierced lid, and then crimped and analyzed from 30-300° C. ramped at 10° C./min.
The DSC data were used to determine the heat of fusion for Forms A, B, D, and F, based on their heats of fusion as measured during conversion from Form C.

[7] = Capmul MCM, (medium name cut off)
[8] = Castor Oil, (medium name cut off)

Compound: CC[C@H](C)C(=O)N1CCC(NC(=O)Nc2ccc(OC(F)(F)F)c(F)c2)CC1 [Form D, (S)-1-(3-fluoro-4-(trifluoromethoxy)phenyl)-3-(1-(2-methylbutanoyl)piperidin-4-yl)urea]
- polymorph stability in binary form slurries ([1]; mixtures A & D and D & E, n-heptane, up to 70° C.): most thermodynamically stable
- single form slurry in n-heptane: resultant polymorph ([1]; n-heptane, room temperature): stable
- polymorph stability in competitive slurry ([1]; room temperature, water, MTBE or n-heptane, listed as Pattern D): most stable form
- Day 1 % AUC ([2]; 60° C.): 100%
- Day 7 % AUC ([2]; 60° C.): 100%
- Initial % AUC ([2]; before thermal stress): 100%
- polymorph stability in humid conditions [3]: unchanged
- Equilibrium Solubility ([4]; Campul MCM): 56.2 mg/mL
- XRD Pattern At Equilibrium ([4]; Campul MCM): Form D
- XRD Pattern At Equilibrium ([4]; Canola Oil): Form D
- solubility thermodynamic at 24 h ([4]; Canola Oil, oil or lipid, thermodynamic from solid): < 100 µg/mL
- Equilibrium Solubility [4, 7]: 24.5 mg/mL
- XRD Pattern At Equilibrium [4, 7]: Form D
- Equilibrium Solubility ([4]; Captex 355): 2.0 mg/mL
- XRD Pattern At Equilibrium ([4]; Captex 355): Form D
- Equilibrium Solubility ([4]; Castor Oil): 5.5 mg/mL
- XRD Pattern At Equilibrium ([4]; Castor Oil): Form D
- Equilibrium Solubility [4, 8]: 42.6** mg/mL
- XRD Pattern At Equilibrium [4, 8]: Form D
- XRD Pattern At Equilibrium ([4]; Corn Oil): Form D
- solubility thermodynamic at 24 h ([4]; Corn Oil, oil or lipid, thermodynamic from solid): < 100 µg/mL
- XRD Pattern At Equilibrium ([4]; DI water): Form C (minor
- XRD Pattern At Equilibrium, minor form ([4]; DI water): Form D)
- solubility thermodynamic at 24 h ([4]; DI water, water, thermodynamic from solid, approximately 24 hours): < 100 µg/mL
- Equilibrium Solubility ([4]; FaSSIF): 0.2 mg/mL
- XRD Pattern At Equilibrium ([4]; FaSSIF): Form D
- solubility thermodynamic at 24 h ([4]; FaSSIF, thermodynamic from solid): < 100 µg/mL
- Equilibrium Solubility ([4]; Gelucire 44/14): 37.7** mg/mL
- XRD Pattern At Equilibrium ([4]; Gelucire 44/14): Form D
- XRD Pattern At Equilibrium ([4]; Glycerol): Form D
- solubility thermodynamic at 24 h ([4]; Glycerol, organic solvent or mixture, thermodynamic from solid): < 100 µg/mL
- Equilibrium Solubility ([4]; Intralipid): 0.1 mg/mL
- XRD Pattern At Equilibrium ([4]; Intralipid): Form D
- Equilibrium Solubility ([4]; Kolliphor): 1.4 mg/mL
- XRD Pattern At Equilibrium ([4]; Kolliphor): Form D
- Equilibrium Solubility ([4]; Kolliphor EL): 20.4 mg/mL
- XRD Pattern At Equilibrium ([4]; Kolliphor EL): Form D
- Equilibrium Solubility ([4]; Kolliphor HS-): 37.3** mg/mL
- XRD Pattern At Equilibrium ([4]; Kolliphor HS-): Form D
- Equilibrium Solubility ([4]; Labrafil): 9.6 mg/mL
- XRD Pattern At Equilibrium ([4]; Labrafil): Form D
- Equilibrium Solubility ([4]; Labrasol): 21.8 mg/mL
- XRD Pattern At Equilibrium ([4]; Labrasol): Form D
- Equilibrium Solubility ([4]; Miglyol 810): 2.0 mg/mL
- XRD Pattern At Equilibrium ([4]; Miglyol 810): Form D
- Equilibrium Solubility ([4]; Miglyol 812): 1.9 mg/mL
- XRD Pattern At Equilibrium ([4]; Miglyol 812): Form D
- solubility thermodynamic at 24 h ([4]; NaOH solution, pH 10.0, pH 10, aqueous buffer, thermodynamic from solid, pH 10.0 NaOH): < 100 µg/mL
- Equilibrium Solubility ([4]; Oleic Acid): 9.0 mg/mL
- XRD Pattern At Equilibrium ([4]; Oleic Acid): Form D
- Equilibrium Solubility ([4]; PEG 300, 50%): 0.4 mg/mL and 0.5 mg/mL
- XRD Pattern At Equilibrium ([4]; PEG 300, 50%): Form D
- XRD Pattern At Equilibrium ([4]; PEG 300, 100%): Form D
- XRD Pattern At Equilibrium ([4]; PEG 400, 50%): Form D
- solubility thermodynamic at 24 h ([4]; PEG 400, 50%, aqueous with cosolvent or surfactant or cyclodextrin, thermodynamic from solid): 900 µg/mL (≈ 2220 µM)
- Equilibrium Solubility ([4]; PEG 400, 100%): 17.0 mg/mL
- XRD Pattern At Equilibrium ([4]; PEG 400, 100%): Form D
- solubility thermodynamic at 24 h ([4]; PEG 400, 100%, organic solvent or mixture, thermodynamic from solid): 20100 µg/mL (≈ 49600 µM)
- Equilibrium Solubility ([4]; Peceol): 12.9 mg/mL
- XRD Pattern At Equilibrium ([4]; Peceol): Form D
- Equilibrium Solubility ([4]; Plurol Oleique): 8.7 mg/mL
- XRD Pattern At Equilibrium ([4]; Plurol Oleique): Form D
- Equilibrium Solubility ([4]; Propylene): 24.1 mg/mL
- XRD Pattern At Equilibrium ([4]; Propylene): Form D
- XRD Pattern At Equilibrium ([4]; SLS, 1x CMC): Form C
- solubility thermodynamic at 24 h ([4]; SLS, 1x CMC, aqueous with cosolvent or surfactant or cyclodextrin, thermodynamic from solid): < 100 µg/mL
- Equilibrium Solubility ([4]; SLS, 5x CMC): 1.2 mg/mL
- XRD Pattern At Equilibrium ([4]; SLS, 5x CMC): Form C
- Equilibrium Solubility ([4]; SLS, 10x CMC): 1.5 mg/mL
- XRD Pattern At Equilibrium ([4]; SLS, 10x CMC): Form C
- Equilibrium Solubility ([4]; SLS, 100x CMC): 2.5 mg/mL
- XRD Pattern At Equilibrium ([4]; SLS, 100x CMC): Form C
- XRD Pattern At Equilibrium ([4]; Soybean Oil): Form D
- solubility thermodynamic at 24 h ([4]; Soybean Oil, oil or lipid, thermodynamic from solid): < 100 µg/mL
- Equilibrium Solubility ([4]; Sulfobutylether): 7.9 mg/mL
- XRD Pattern At Equilibrium ([4]; Sulfobutylether): Form D
- Equilibrium Solubility ([4]; Transcutol HP): 38.1 mg/mL
- XRD Pattern At Equilibrium ([4]; Transcutol HP): Form D
- Equilibrium Solubility ([4]; Triacetin): 6.4 mg/mL
- XRD Pattern At Equilibrium ([4]; Triacetin): Form D
- XRD Pattern At Equilibrium ([4]; Tween 80, 1x): Form C
- solubility thermodynamic at 24 h ([4]; Tween 80, 1x, aqueous with cosolvent or surfactant or cyclodextrin, thermodynamic from solid): < 100 µg/mL
- XRD Pattern At Equilibrium ([4]; Tween 80, 5x): Form C
- solubility thermodynamic at 24 h ([4]; Tween 80, 5x, aqueous with cosolvent or surfactant or cyclodextrin, thermodynamic from solid): < 100 µg/mL
- XRD Pattern At Equilibrium ([4]; Tween 80, 10x): Form C
- solubility thermodynamic at 24 h ([4]; Tween 80, 10x, aqueous with cosolvent or surfactant or cyclodextrin, thermodynamic from solid): < 100 µg/mL
- XRD Pattern At Equilibrium ([4]; Tween 80, 100x): Form C
- solubility thermodynamic at 24 h ([4]; Tween 80, 100x, aqueous with cosolvent or surfactant or cyclodextrin, thermodynamic from solid): < 100 µg/mL
- Equilibrium Solubility ([4]; Vitamin E): 40.6** mg/mL
- XRD Pattern At Equilibrium ([4]; Vitamin E): Form D
- XRD Pattern At Equilibrium ([4]; pH 1.0 HCl): Forms C & D
- solubility thermodynamic at 24 h ([4]; pH 1.0 HCl, pH 1, simulated gastric fluid, thermodynamic from solid): < 100 µg/mL
- XRD Pattern At Equilibrium ([4]; pH 7.4): Form D
- solubility thermodynamic at 24 h ([4]; pH 7.4 medium (buffer not named), pH 7.4, aqueous buffer, thermodynamic from solid, pH 7.4): < 100 µg/mL
- XRD Pattern At Equilibrium ([4]; pH 10.0 NaOH): Forms C & D
- Step → Observation ([5]; 100 mg/mL, 1. RT stirring for 1 hr, listed as Pattern D): 1. RT stirring for 1 hr → suspension
- Step → Observation ([5]; 100 mg/mL, 2. 40 C. heating for 0.5 hr, listed as Pattern D): 2. 40 C. heating for 0.5 hr → clear solution
- Step → Observation ([5]; 100 mg/mL, 3. RT storage for ~8 days, listed as Pattern D): 3. RT storage for ~8 days → clear solution
- Step → Observation ([5]; 100 mg/mL, 4. RT storage for ~9 days, listed as Pattern D): 4. RT storage for ~9 days → precipitation
- Step → Observation ([5]; 200 mg/mL, 1. RT stirring for 1 hr): 1. RT stirring for 1 hr →suspension
- Step → Observation ([5]; 200 mg/mL, 2. 40 C. heating for 48 hr, listed as Pattern D): 2. 40 C. heating for 48 hr →suspension
- Step → Observation ([5]; 200 mg/mL, 3. 55 C. heating for <16 hr): 3. 55 C. heating for <16 hr →clear solution
- Step → Observation ([5]; 200 mg/mL, 4. RT storage for <3.5 days): 4. RT storage for <3.5 days →precipitation
- Step → Observation ([5]; 200 mg/mL, 5. 55 C. reheating for overnight): 5. 55 C. reheating for overnight →clear solution
- Step → Observation ([5]; 200 mg/mL, 6. RT storage for overnight): 6. RT storage for overnight →precipitation
- DSC Thermal Events, Endo: melting of pattern D [6]: 143 °C melting of pattern D
- stability rank among Forms A, B, D and F ([6]; DSC, TABLE 10): highest stability
- thermodynamic stability (from heat of fusion) ([6]; DSC, TABLE 10): thermodynamically stable
- Heat of fusion ([6]; DSC, scaled-up polymorphs, measured during conversion from Form C): 67.51

Compound: CC[C@H](C)C(=O)N1CCC(NC(=O)Nc2ccc(OC(F)(F)F)c(F)c2)CC1 [Formula (I), (S)-1-(3-fluoro-4-(trifluoromethoxy)phenyl)-3-(1-(2-methylbutanoyl)piperidin-4-yl)urea]
- solubility thermodynamic ([4]; organic solvent or mixture, thermodynamic from solid, PEG300, PEG400, propylene glycol, vitamin E TPGS, Gelucire 44/14, castor oil hydrogenated, Capmul MCM NF, Capmul MCM EP, Kolliphor HS-15, Kolliphor EL, Labrasol, Transcutol HP, approx. 24 hours): > 20000 µg/mL
- time without visual precipitation in PEG300 ([5]; 100 mg/mL in PEG300, room temperature): 9 days
- precipitation from PEG300 ([5]; 200 mg/mL in PEG300): readily precipitated overnight
